Test results published in patent US6642392B1 (priority 1997, dated 2003).

How the values were obtained:
Format in all cases: in vivo
[1] = system: Pyricularia oryzae; conditions: rice blast; 100 = 100% disease control, 0 = no control; unmarked entries (standard test concentration)
[2] = system: Phytophthora infestans; conditions: tomato late blight; 100 = 100% disease control, 0 = no control; unmarked entries (standard test concentration)
[3] = system: Eiysiphe graminis f. sp. tritici; experiment: Test A: wheat powdery mildew, preventive spray on wheat seedlings; conditions: wheat powdery mildew; 100 = 100% disease control, 0 = no control relative to controls; unmarked entries (standard test concentration)
Procedure, shortened: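 Compounds (3% acetone, 250 ppm Trem 014) sprayed to run-off on wheat seedlings, inoculated next day with spore dust. Incubated 7 days at 20° C before disease rating, 0–100% control relative to untreated controls.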

[4] = system: Puccinia recondita; experiment: Test B: wheat leaf rust, preventive spray on wheat seedlings; conditions: wheat leaf rust; 100 = 100% disease control, 0 = no control; unmarked entries (standard test concentration)
Procedure, shortened: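 Wheat seedlings were sprayed to run-off with compound (3% acetone, 250 ppm Trem 014), then inoculated with P. recondita spores the next day. They were held 24 h saturated at 20 °C, then 6 days at 20 °C. Ratings are 0–100% disease control versus controls.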

[5] = system: Botrytis cinerea; experiment: Test E: gray mold, preventive spray on cucumber seedlings; conditions: gray mold on cucumber; 100 = 100% disease control, 0 = no control; unmarked entries (standard test concentration)
Procedure, shortened: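 Compounds in 3% acetone were suspended with 250 ppm Trem 014 surfactant and sprayed to run-off on cucumber seedlings. B. cinerea spores were inoculated next day, then 48 h saturated humidity at 20° C and 5 days at 20° C. Disease control rated 0–100% versus controls.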

| SMILES | Test C disease control rating [1] | Test D disease control rating [2] | Test A disease control rating [3] | Test B disease control rating [4] | Test E disease control rating [5] |
| --- | --- | --- | --- | --- | --- |
| C[C@H](COc1cc(F)ccc1Br)NC(=O)C(C#N)C(C)(C)C (single isomer, unassigned) [166b] | 99% | 0% | 0% | 0% | 0% |
| C[C@H](COc1cc(F)cc(F)c1F)NC(=O)C(C#N)C(C)(C)C (single isomer, unassigned) [168a] | 74% | 0% | 76% | 0% | 58% |
| C[C@H](COc1cc(F)cc(F)c1F)NC(=O)C(C#N)C(C)(C)C (single isomer, unassigned) [168b] | 94% | 45% | 95% | 0% | 86% |
| C[C@H](COc1cc(F)cc(F)c1Cl)NC(=O)C(C#N)C(C)(C)C (single isomer, unassigned) [169a] | 91% | 24% | 84% | 27% | 0% |
| C[C@H](COc1cc(F)cc(F)c1Cl)NC(=O)C(C#N)C(C)(C)C (single isomer, unassigned) [169b] | 97% | 0% | 0% | 0% | 0% |
| C[C@H](COc1cc(Cl)cc(Cl)c1Cl)NC(=O)C(C#N)C(C)(C)C (single isomer, unassigned) [170a] | 53% | 0% | 35% | 0% | 58% |
| C[C@H](COc1cc(Cl)cc(Cl)c1Cl)NC(=O)C(C#N)C(C)(C)C (single isomer, unassigned) [170b] | 53% | 23% | 61% | 68% | 95% |
| C[C@H](COc1c(Cl)ccc(Cl)c1Cl)NC(=O)C(C#N)C(C)(C)C (single isomer, unassigned) [171a] | 86% | 0% | 0% | 0% | 0% |
| C[C@H](COc1c(Cl)ccc(Cl)c1Cl)NC(=O)C(C#N)C(C)(C)C (single isomer, unassigned) [171b] | 53% | 0% | 91% | 0% | 58% |
| C[C@H](COc1cc(F)c(Cl)cc1F)NC(=O)C(C#N)C(C)(C)C (single isomer, unassigned) [173a] | 52% | 33% | 63% | 28% | 0% |
| C[C@H](COc1cc(F)c(Cl)cc1F)NC(=O)C(C#N)C(C)(C)C (single isomer, unassigned) [173b] | 90% | 91% | 0% | 0% | 0% |
| C[C@H](COc1cc(Cl)c(Cl)cc1Cl)NC(=O)C(C#N)C(C)(C)C (single isomer, unassigned) [174a] | 31% | 54% | 0% | 0% | 0% |
| C[C@H](COc1cc(Cl)c(Cl)cc1Cl)NC(=O)C(C#N)C(C)(C)C (single isomer, unassigned) [174b] | 52% | 91% | 0% | 28% | 0% |
| C[C@H](COc1ccc(Cl)c(Cl)c1)NC(=O)C(C#N)C(C)(C)C (single isomer, unassigned) [181a] | 86% | 56% | 0% | 0% | 69% |
| C[C@H](COc1ccc(Cl)c(Cl)c1)NC(=O)C(C#N)C(C)(C)C (single isomer, unassigned) [181b] | 74% | 0% | 37% | 0% | 90% |
| C[C@H](COc1ccc(Cl)c(F)c1)NC(=O)C(C#N)C(C)(C)C (single isomer, unassigned) [182a] | 0% | 0% | 0% | 0% | 0% |
| C[C@H](COc1ccc(Cl)c(F)c1)NC(=O)C(C#N)C(C)(C)C (single isomer, unassigned) [182b] | 94% | 0% | 0% | 68% | 0% |
| C[C@H](COc1ccc(F)c(Cl)c1)NC(=O)C(C#N)C(C)(C)C (single isomer, unassigned) [183a] | 86% | 35% | 0% | 28% | 0% |
| C[C@H](COc1ccc(F)c(Cl)c1)NC(=O)C(C#N)C(C)(C)C (single isomer, unassigned) [183b] | 94% | 35% | 86% | 28% | 69% |
| C[C@H](COc1cc(F)cc(F)c1)NC(=O)C(C#N)C(C)(C)C (single isomer, unassigned) [184a] | 74% | 0% | 62% | 0% | 6% |
| C[C@H](COc1cc(F)cc(F)c1)NC(=O)C(C#N)C(C)(C)C (single isomer, unassigned) [184b] | 74% | 9% | 62% | 0% | 45% |
| C[C@H](COc1ccc(F)c(F)c1Br)NC(=O)C(C#N)C(C)(C)C (single isomer, unassigned) [187a] | 94% | 9% | 0% | 28% | 6% |
| C[C@H](COc1ccc(F)c(F)c1Br)NC(=O)C(C#N)C(C)(C)C (single isomer, unassigned) [187b] | 94% | 91% | 77% | 68% | 6% |
| C[C@H](COc1cc(F)c(F)cc1F)NC(=O)C(C#N)C(C)(C)C (single isomer, unassigned) [188a] | 97% | 56% | 0% | 0% | 0% |
| C[C@H](COc1cc(F)c(F)cc1F)NC(=O)C(C#N)C(C)(C)C (single isomer, unassigned) [188b] | 100% | 35% | 0% | 0% | 45% |
| C[C@H](COc1c(F)cc(F)cc1F)NC(=O)C(C#N)C(C)(C)C (single isomer, unassigned) [189a] | 97% | 0% | 0% | 0% | 6% |
| C[C@H](COc1c(F)cc(F)cc1F)NC(=O)C(C#N)C(C)(C)C (single isomer, unassigned) [189b] | 100% | 35% | 0% | 0% | 0% |
| C[C@H](COc1ccc(F)c(F)c1F)NC(=O)C(C#N)C(C)(C)C (single isomer, unassigned) [190a] | 91% | 0% | 0% | 0% | 6% |
| C[C@H](COc1ccc(F)c(F)c1F)NC(=O)C(C#N)C(C)(C)C (single isomer, unassigned) [190b] | 94% | 0% | 0% | 0% | 0% |
| C[C@H](COc1cc(F)ccc1Cl)NC(=O)C(C#N)C(C)(C)C (single isomer, unassigned) [191a] | 100% | 25% | 0% | 0% | 85% |
